Measurements reported in paper PMC10500703 (Journal of medicinal chemistry, 2021).

Experiments:
Assay type in all cases: cell-based, Mycobacterium tuberculosis
Mtb ∆cyd = test system: Mtb ∆cyd
[1] = test system: Mtb InhA-OE (H37Rv-LP:fabG1/inhA-c-15t)
Mtb EthA C253R = test system: Mtb EthA C253R

Row | Compound | MIC (Mtb ∆cyd) | MIC [1] | MIC (Mtb EthA C253R)
1 | 3-(1,3-bis(4-chlorophenyl)-1H-pyrazol-5-yl)-N-(methylsulfonyl)propanamide [Compound 8] | 4 µM | 0.24 µM | 
2 | CCc1cc(C(N)=S)ccn1 [ETH, Ethionamide] |  |  | >125 µM
